PubChem BioAssay AID1259407 (Chemical Carcinogenesis Research Information System (CCRIS), 2018)
Calls of active or inactive are those of the source. The rule behind the calls is not given here.

System: CCRIS mutagenicity, Ames/micronucleus/aberration tests
Experiment: CCRIS mutagenicity studies
[1] = Test System: AMES SALMONELLA TYPHIMURIUM, Strain/Indicator: TA98, Metabolic Activation: NONE, Method: PREINCUBATION
[2] = Test System: AMES SALMONELLA TYPHIMURIUM, Strain/Indicator: TA100, Metabolic Activation: NONE, Method: PREINCUBATION
[3] = Test System: AMES SALMONELLA TYPHIMURIUM, Strain/Indicator: TA1535, Metabolic Activation: NONE, Method: PREINCUBATION
[4] = Test System: AMES SALMONELLA TYPHIMURIUM, Strain/Indicator: TA98, Metabolic Activation: NONE, Method: STANDARD PLATE
[5] = Test System: AMES SALMONELLA TYPHIMURIUM, Strain/Indicator: TA100, Metabolic Activation: NONE, Method: STANDARD PLATE

For Nc1ccc(Cl)cc1N, the mutagenic call (End Point: IN VITRO CHROMOSOMAL ABERRATIONS, Test System: CHL CELLS, Metabolic Activation: NONE) was “active; positive (structural changes)”, the mutagenic call (End Point: IN VITRO CHROMOSOMAL ABERRATIONS, Test System: CHL CELLS, Metabolic Activation: RAT, LIVER, S-9, SODIUM PHENOBARBITAL AND 5,6-BENZOFLAVONE) was “active; positive (structural changes)” and the mutagenic call (End Point: IN VITRO CHROMOSOMAL ABERRATIONS, Test System: CHO-LB CELLS, Metabolic Activation: NONE) was “active; positive”. For the same compound, the mutagenic call (End Point: IN VITRO CHROMOSOMAL ABERRATIONS, Test System: CHO-LB CELLS, Metabolic Activation: RAT, LIVER, S-9, AROCLOR 1254) was “inactive; negative”, the mutagenic call (End Point: IN VIVO MICRONUCLEUS, Test System: HEPATOCYTES, Species: RAT, Strain/Sex: FISHER 344 OR SD/MALE, Route: ORAL OR IP) was “inactive; negative” and the mutagenic call (End Point: IN VIVO MICRONUCLEUS, Test System: PERIPHERAL BLOOD RETICULOCYTES, Species: RAT, Strain/Sex: FISHER 344 OR SD/MALE, Route: ORAL OR IP) was “inactive; negative”. The mutagenic call (Test System: AMES SALMONELLA TYPHIMURIUM, Strain/Indicator: TA97, Metabolic Activation: HAMSTER, LIVER, S-9, AROCLOR 1254 (10%), Method: PREINCUBATION) was “active; positive”, the mutagenic call (Test System: AMES SALMONELLA TYPHIMURIUM, Strain/Indicator: TA97, Metabolic Activation: NONE, Method: PREINCUBATION) was “inactive; negative” and the mutagenic call (Test System: AMES SALMONELLA TYPHIMURIUM, Strain/Indicator: TA97, Metabolic Activation: RAT, LIVER, S-9, AROCLOR 1254 (10%), Method: PREINCUBATION) was “active; positive”. For the same compound, the mutagenic call (Test System: AMES SALMONELLA TYPHIMURIUM, Strain/Indicator: TA98, Metabolic Activation: HAMSTER, LIVER, S-9, AROCLOR 1254 (10%), Method: PREINCUBATION) was “active; positive”, the mutagenic call [1] was “inactive; negative” and the mutagenic call (Test System: AMES SALMONELLA TYPHIMURIUM, Strain/Indicator: TA98, Metabolic Activation: RAT, LIVER, S-9, AROCLOR 1254 (10%), Method: PREINCUBATION) was “active; positive”. For the same compound, the mutagenic call (Test System: AMES SALMONELLA TYPHIMURIUM, Strain/Indicator: TA98, Metabolic Activation: RAT, LIVER, S-9, PCB, Method: PREINCUBATION) was “active; positive”, the mutagenic call (Test System: AMES SALMONELLA TYPHIMURIUM, Strain/Indicator: TA100, Metabolic Activation: HAMSTER, LIVER, S-9, AROCLOR 1254 (10%), Method: PREINCUBATION) was “active; positive” and the mutagenic call [2] was “inactive; negative”. For the same compound, the mutagenic call (Test System: AMES SALMONELLA TYPHIMURIUM, Strain/Indicator: TA100, Metabolic Activation: RAT, LIVER, S-9, AROCLOR 1254 (10%), Method: PREINCUBATION) was “active; positive”, the mutagenic call (Test System: AMES SALMONELLA TYPHIMURIUM, Strain/Indicator: TA100, Metabolic Activation: RAT, LIVER, S-9, PCB, Method: PREINCUBATION) was “active; positive” and the mutagenic call (Test System: AMES SALMONELLA TYPHIMURIUM, Strain/Indicator: TA1535, Metabolic Activation: HAMSTER, LIVER, S-9, AROCLOR 1254 (10%), Method: PREINCUBATION) was “inactive; negative”. The mutagenic call [3] was “inactive; negative”, the mutagenic call (Test System: AMES SALMONELLA TYPHIMURIUM, Strain/Indicator: TA1535, Metabolic Activation: RAT, LIVER, S-9, AROCLOR 1254 (10%), Method: PREINCUBATION) was “inactive; negative” and the mutagenic call (Test System: E. COLI, Strain/Indicator: WP2 UVRA, Metabolic Activation: HAMSTER, LIVER, S-9, AROCLOR 1254, Method: STANDARD PLATE) was “inactive; negative”. For the same compound, the mutagenic call (Test System: E. COLI, Strain/Indicator: WP2 UVRA, Metabolic Activation: MOUSE, LIVER, S-9, AROCLOR 1254, Method: STANDARD PLATE) was “inactive; negative”, the mutagenic call (Test System: E. COLI, Strain/Indicator: WP2 UVRA, Metabolic Activation: MOUSE, LIVER, S-9, Method: STANDARD PLATE) was “inactive; negative” and the mutagenic call (Test System: E. COLI, Strain/Indicator: WP2 UVRA, Metabolic Activation: NONE, Method: STANDARD PLATE) was “inactive; negative”. The mutagenic call (Test System: E. COLI, Strain/Indicator: WP2 UVRA, Metabolic Activation: RAT, LIVER, S-9, Method: STANDARD PLATE) was “inactive; negative” and the mutagenic call (Test System: UDS RODENT HEPATOCYTES, Strain/Indicator: THY INCORP (NON-S-PHASE), Metabolic Activation: NONE, Method: AUTORADIOGRAPHY) was “active; positive”.

With Cn1c2ccccc2c2cc(N)ccc21 the mutagenic call [4] was “active; positive”, the mutagenic call (Test System: AMES SALMONELLA TYPHIMURIUM, Strain/Indicator: TA98, Metabolic Activation: RAT LIVER S-9, AROCLOR 1254, Method: STANDARD PLATE) was “active; positive” and the mutagenic call [5] was “active; positive”. For the same compound, the mutagenic call (Test System: AMES SALMONELLA TYPHIMURIUM, Strain/Indicator: TA100, Metabolic Activation: RAT LIVER S-9, AROCLOR 1254, Method: STANDARD PLATE) was “active; positive”.

In the case of O=C(O)/C=C/c1cccc([N+](=O)[O-])c1, the mutagenic call [1] is reported as “inactive; negative”, the mutagenic call [4] is reported as “inactive; negative” and the mutagenic call (Test System: AMES SALMONELLA TYPHIMURIUM, Strain/Indicator: TA98, Metabolic Activation: RAT, LIVER, S-9, AROCLOR 1254, Method: STANDARD PLATE) is reported as “inactive; negative”. The mutagenic call [2] was “active; positive”, the mutagenic call [5] was “active; positive” and the mutagenic call (Test System: AMES SALMONELLA TYPHIMURIUM, Strain/Indicator: TA100, Metabolic Activation: RAT, LIVER, S-9, AROCLOR 1254, Method: PREINCUBATION) was “active; positive”. For the same compound, the mutagenic call (Test System: AMES SALMONELLA TYPHIMURIUM, Strain/Indicator: TA100, Metabolic Activation: RAT, LIVER, S-9, AROCLOR 1254, Method: STANDARD PLATE) was “inactive; negative”, the mutagenic call [3] was “active; positive” and the mutagenic call (Test System: AMES SALMONELLA TYPHIMURIUM, Strain/Indicator: TA1537, Metabolic Activation: NONE, Method: PREINCUBATION) was “inactive; negative”. For the same compound, the mutagenic call (Test System: AMES SALMONELLA TYPHIMURIUM, Strain/Indicator: TA1538, Metabolic Activation: NONE, Method: PREINCUBATION) was “inactive; negative”.

In the case of Nc1c(N=Nc2ccc(-c3ccc(N=Nc4cc(S(=O)(=O)O)c5ccccc5c4N)cc3)cc2)cc(S(=O)(=O)O)c2ccccc12, the mutagenic call (Test System: AMES SALMONELLA TYPHIMURIUM, Strain/Indicator: TA98, Metabolic Activation: HAMSTER, LIVER, S-9, Method: PREINCUBATION (PRIVAL METHOD)) is reported as “active; positive”, the mutagenic call [4] is reported as “inactive; negative” and the mutagenic call (Test System: AMES SALMONELLA TYPHIMURIUM, Strain/Indicator: TA98, Metabolic Activation: RAT, LIVER, S-9, PHENOBARBITAL, Method: STANDARD PLATE) is reported as “inactive; negative”. The mutagenic call [5] was “active; positive”, the mutagenic call (Test System: AMES SALMONELLA TYPHIMURIUM, Strain/Indicator: TA100, Metabolic Activation: RAT, LIVER, S-9, PHENOBARBITAL, Method: STANDARD PLATE) was “inactive; negative” and the mutagenic call (Test System: AMES SALMONELLA TYPHIMURIUM, Strain/Indicator: TA1538, Metabolic Activation: HAMSTER, LIVER, S-9, Method: STANDARD PLATE) was “inactive; negative”. For the same compound, the mutagenic call (Test System: AMES SALMONELLA TYPHIMURIUM, Strain/Indicator: TA1538, Metabolic Activation: RAT, LIVER, S-9, AROCLOR 1254, Method: STANDARD PLATE) was “inactive; negative”, the mutagenic call (Test System: Ames Salmonella typhimurium, Strain/Indicator: TA98, Metabolic Activation: Rat, Liver, S-9, Sodium phenobarbitone, Method: Preincubation) was “inactive; negative, test conducted under both aerobic and anaerobic conditions” and the mutagenic call (Test System: Ames Salmonella typhimurium, Strain/Indicator: TA1538, Metabolic Activation: Rat, Liver, S-9, Sodium phenobarbitone, Method: Preincubation) was “inactive; negative, test conducted under both aerobic and anaerobic conditions”.

For C1CCNCC1, the mutagenic call (Test System: MOUSE LYMPHOMA, Strain/Indicator: L5178Y (TK+/TK-), Metabolic Activation: NONE, Method: SUSPENSION/PLATE) was “active; positive” and the mutagenic call (Test System: MOUSE LYMPHOMA, Strain/Indicator: L5178Y (TK+/TK-), Metabolic Activation: RAT, LIVER, S-9, AROCLOR 1254, Method: SUSPENSION/PLATE) was “inactive; negative”.

FCC1CO1 (centres undefined) was tested, and the mutagenic call (Test System: AMES SALMONELLA TYPHIMURIUM, Strain/Indicator: TA98, Metabolic Activation: HAMSTER, LIVER, S-9, AROCLOR 1254 (30%), Method: PREINCUBATION) was “inactive; negative”, the mutagenic call [1] was “inactive; negative” and the mutagenic call (Test System: AMES SALMONELLA TYPHIMURIUM, Strain/Indicator: TA98, Metabolic Activation: RAT, LIVER, S-9, AROCLOR 1254 (30%), Method: PREINCUBATION) was “inactive; negative”. The mutagenic call (Test System: AMES SALMONELLA TYPHIMURIUM, Strain/Indicator: TA100, Metabolic Activation: HAMSTER, LIVER, S-9, AROCLOR 1254 (30%), Method: PREINCUBATION) was “active; positive”, the mutagenic call [2] was “active; positive” and the mutagenic call (Test System: AMES SALMONELLA TYPHIMURIUM, Strain/Indicator: TA100, Metabolic Activation: RAT, LIVER, S-9, AROCLOR 1254 (30%), Method: PREINCUBATION) was “active; positive”.

In the case of CN(C)C(=S)SNCCNSC(=S)N(C)C, the mutagenic call [5] is reported as “active; positive” and the mutagenic call (Test System: AMES SALMONELLA TYPHIMURIUM, Strain/Indicator: TA100, Metabolic Activation: S-9 MIX, Method: STANDARD PLATE) is reported as “inactive; negative”.
